Read-outs that look alike come from different tables or passages of the source.
Tests used:
[1] = tested on: SH-SY5Y, DU145, LNCaP, NIH-3T3, MDA-MB-435S and hTERT RPE-1 cell lines; assay: Incucyte Caspase-3/7 apoptosis assay; format: cell-based; settings: 100 μM, 50 μM and 20 μM; all the cell lines
Method: Cell lines SH-SY5Y (ACC 209), DU145 (ACC 261), LNCaP (ACC 256) and NIH-3T3 (ACC 59) were purchased from DSMZ (Germany). MDA-MB-435S (HTB 129) and hTERT RPE-1 (CRL 4000) were obtained from ATCC (USA). Cell lines were cultured in their recommended media Supplemented with 10% or 15% FCS (PAA laboratories, Germany) at 37°C in humidified 5% CO2 atmosphere. All media were purchased from ThermoFisher Scientific (Waltham, Massachusetts, United States).
Cell proliferation, cytotoxicity and apoptosis were assessed in a 96-well microtiter plate by live-cell imaging using an IncuCyte Zoom System (Essen BioScience, UK). Cell proliferation was monitored in terms of cell confluency (%). Cell cytotoxicity was assessed by the CellTox Green Dye assay (Promega, Madison, Wisconsin, USA). The Incucyte Caspase-3/7 apoptosis assay (Essen BioScience, UK) was used to evaluate the effect of compound 5 on the apoptotic pathway. As negative controls media supplemented with 0.05% of DMSO were used.
Live-cell imaging data were collected from the IncuCyte Zoom software and analyzed using GraphPad Prism 5 software. Proliferation was measured as Phase Object Confluence (%), cytotoxicity and apoptosis were measured as Green Object Count (1/mm^2). All data are represented as mean S.E.M of n = 6 different wells. […]

[2] = target: T1, hKV10.1a (Homo sapiens, UniProt O95259); assay: Two-electrode voltage-clamp recordings of KV10.1 currents in Xenopus laevis oocytes; format: cell-based
T1 construct: expressed in transfected cells; host or cells: Xenopus laevis oocytes injected with cRNA transcribed from the hKV10.1a-pSGEM plasmid
T1 sequence (O95259 1-962 isoform O95259-2): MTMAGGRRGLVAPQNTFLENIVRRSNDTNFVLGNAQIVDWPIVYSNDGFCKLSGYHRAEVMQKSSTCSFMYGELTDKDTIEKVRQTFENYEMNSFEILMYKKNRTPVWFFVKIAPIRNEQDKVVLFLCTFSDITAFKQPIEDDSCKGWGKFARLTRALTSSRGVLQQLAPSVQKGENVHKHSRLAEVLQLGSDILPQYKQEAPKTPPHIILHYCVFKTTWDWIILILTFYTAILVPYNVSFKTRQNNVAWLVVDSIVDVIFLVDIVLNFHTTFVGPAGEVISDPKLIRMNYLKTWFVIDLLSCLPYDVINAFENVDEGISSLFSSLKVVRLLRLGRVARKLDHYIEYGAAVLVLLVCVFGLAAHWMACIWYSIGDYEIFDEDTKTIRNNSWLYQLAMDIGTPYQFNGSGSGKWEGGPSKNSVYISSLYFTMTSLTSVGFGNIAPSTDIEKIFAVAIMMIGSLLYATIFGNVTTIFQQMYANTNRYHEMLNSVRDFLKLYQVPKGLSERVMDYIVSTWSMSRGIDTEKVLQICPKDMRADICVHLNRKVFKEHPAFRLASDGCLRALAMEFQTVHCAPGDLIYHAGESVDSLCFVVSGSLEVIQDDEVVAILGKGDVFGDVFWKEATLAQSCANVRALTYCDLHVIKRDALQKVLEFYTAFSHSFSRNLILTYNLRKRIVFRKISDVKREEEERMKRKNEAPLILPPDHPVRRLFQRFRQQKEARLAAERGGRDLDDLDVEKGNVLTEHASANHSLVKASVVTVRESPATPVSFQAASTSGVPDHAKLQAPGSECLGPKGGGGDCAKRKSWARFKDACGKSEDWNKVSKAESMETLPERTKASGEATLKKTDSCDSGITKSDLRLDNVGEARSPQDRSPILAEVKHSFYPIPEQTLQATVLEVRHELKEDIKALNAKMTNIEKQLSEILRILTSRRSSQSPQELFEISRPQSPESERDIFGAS
From the text: For the expression of hKV10.1a (GeneBank accession number: NM_002238.3) in Xenopus oocytes, the hKV10.1a-pSGEM plasmid was linearized with SfiI (ThermoFisher Scientific, Waltham, Massachusetts, USA) and transcribed using the T7 mMESSAGE-mMACHINE transcription kit (Ambion®, Carlsbad, California, USA).
Stage V-VI Xenopus laevis (African clawed frog) oocytes were isolated by partial ovariectomy. Mature female animals were purchased from Nasco (Fort Atkinson, Wisconsin, USA) and were housed in the Aquatic Facility (KU Leuven) in compliance with the regulations of the European Union (EU) concerning the welfare of laboratory animals as declared in Directive 2010/63/EU. The use of Xenopus laevis was approved by the Animal Ethics Committee of the KU Leuven (Project nr. P038/2017). Prior to harvesting the oocytes, the animals were anesthetized by a 15-min submersion in 0.1% tricaine methanesulfonate (pH 7.0). Isolated oocytes were defolliculated with 1.5 mg/mL collagenase.
Defolliculated oocytes were injected with 4 nL of cRNA at a concentration of 1 ng/nL using a micro-injector (Drummond Scientific®, Broomall, Pennsylvania, USA). The oocytes were incubated in a solution containing (in mM): NaCl, 96; KCl, 2; CaCl2, 1.8; MgCl2, 2 and HEPES, 5 (pH 7.4), supplemented with 50 mg/L gentamycin sulfate.
Two-electrode voltage-clamp recordings were performed at room temperature (18–22°C) using a Geneclamp 500 amplifier (Molecular Devices, USA) controlled by a pClamp data acquisition system (Axon Instruments®, Union City, California, USA). Whole cell currents from oocytes were recorded 1–4 days after injection. Bath solution composition was (in mM): NaCl, 96; KCl, 2; CaCl2, 1.8; MgCl2, 2 and HEPES, 5 (pH 7.5). Voltage and current electrodes were filled with a 3 M solution of KCl in H2O. Resistances of both electrodes were kept between 0.5 and 1.5 MΩ. The elicited KV10.1 currents were filtered at 1 kHz and sampled at 2 kHz using a four-pole low-pass Bessel filter. Leak subtraction was performed using a -P/4 protocol. KV10.1 currents were evoked by 2-s depolarizing pulses to 0 mV from a holding potential of -90 mV unless otherwise indicated.
All electrophysiological data are presented as means ± S.E.M of n ≥ 3 independent experiments unless otherwise indicated. All data was analyzed using pClamp Clampfit 10.4 (Molecular Devices®, Downingtown, Pennsylvania, USA) and OriginPro 8 (Originlab®, Northampton, Massachusetts, USA) or GraphPad Prism 5 software (GraphPad Software, Inc., San Diego, California, USA).

remaining current, % of the control current ([2]; 10 μM added during 20-s continuous step to 30 mV): approximately 50%
reversibility of KV10.1 inhibition ([2]; 10 μM, wash-out): reversible
effect on KV10.1 inactivation (two-pulse protocol) ([2]; 10 μM, 1.5-s prepulse -140 mV to 50 mV, 0.5-s test pulse to 30 mV): an apparent inactivation is induced
inhibition at 10 µM ([2]; 10 μM, 2-s depolarizing pulses to 0 mV from -90 mV, read-out: KV10.1 current inhibition): 51 ± 3%
shift of activation curve (ΔV1/2) to more negative potentials ([2]; 10 μM, ND96 (2 mM extracellular K+), Boltzmann fit): 21.0 ± 1.6 mV
half-maximal voltage of activation (V1/2) in presence of compound ([2]; 10 μM, ND96 (2 mM extracellular K+), control V1/2 = 23.2 ± 0.4 mV): 2.1 ± 0.4 mV
slope factor k of activation curve in presence of compound ([2]; 10 μM, ND96, control k = 15.5 ± 0.4): 13.8 ± 0.3
time constant (τ) of wash-out ([2]; 10 μM, one phase association equation): ~ 20 s
exponential time constant (τ) of wash-in ([2]; 10 μM, one phase decay equation): 5.3 s
inhibition at 10 µM ([2]; 10 μM, oocyte clamped at -90 mV for 10 minutes, then 2-s pulse to 0 mV, read-out: KV10.1 current inhibition after clamping at -90 mV): 53 ± 4%
KV10.1 current inhibition ([2]; 40 μM, extracellular perfusion, average ± SEM): 86.9 ± 1.3%
inhibition at 40 µM ([2]; 40 μM, extracellular perfusion, average ± SEM, read-out: KV10.1 current inhibition): 87 ± 1%
Hill coefficient ([2]; 8 concentrations 0.04 μM to 80 μM, logistic dose-response fit): 1.6 ± 0.3
IC50 ([2]; 8 concentrations 0.04 μM to 80 μM, logistic dose-response fit, read-out: IC50 of KV10.1 current inhibition): 7.7 ± 1 µM
competition plot with mibefradil ([2]; mixtures p*10 μM 5 and (1-p)*10 μM mibefradil, 7 ratios): compete for the same binding site
Structure (SMILES): COc1ccc(C(=O)NCCc2cc(Br)c(OCCCN(C)C)c(Br)c2)cc1Cl [Compound 5, 3-Chloro-N-[3,5-dibromo-4-[3-(dimethylamino)propoxy]phenethyl]-4-methoxybenzamide]
caspase-3/7 activity (induction of the apoptotic pathway) [1]: caspase-3/7 activity was detected

From publication PMC5722316, “Synthesis of novel purpurealidin analogs and evaluation of their effect on the cancer-relevant potassium channel KV10.1” (PLoS ONE, 2017)
